Experimental data published in patent US10966957B2, “Method of treating cancer with combinations of histone deacetylase inhibitors (HDAC1) substances” (Research Cancer Institute of America, priority 2011, dated 2021).

Legend:
patients with cancer = format: in vivo, human; settings: octreotide subcutaneously at 50-400 mcgs
Excerpt: As of October 2011, 40 patient charts were selected randomly and reviewed. The inclusion criteria were diagnosis of cancer. No patients were excluded. Patients were aged 27 to 83 years. All were diagnosed by their oncologist/physician and were offered standard conventional treatment of surgery, traditional chemotherapy or radiation.
The patients were managed based on unique developed protocols that were designed in correlation with available research studies and clinical trials that implicate using specific natural and synthetic IV therapies. IV therapies are targeted at epigenetic level and consist of antioxidants, quercetin, DCA, sodium phenyl butyrate, and lipoic acid separately or in combination. All patients received one or more of such treatments. […] Doses of each treatment remained the same or close on each treatment, Quercetin was given intravenously at the dose 0.5 to 1.0 gram (50 mg/ml).
The progression of disease was measures during the course of treatment through tumor markers, Imaging studies and markers for cancer growth, necrosis, LDH, and inflammation, CRP, as well as the Natural killer cell activity or lymphocyte count and Circulatory tumor cells.

[1] = tested on: refractory solid tumor malignancies; settings: cited from earlier work
prostate cancer cells = settings: cited from earlier work
[2] = tested on: cancer deemed no longer treatable by conventional methods; settings: cited from earlier work
tyrosine kinase = settings: measured in 11 subjects; cited from earlier work
acites tumor cells = settings: injected peritoneally; cited from earlier work
[3] = tested on: human squamous cell carcinoma line; settings: injected interperitoneally; minimal effects on surrounding normal cells; cited from earlier work
[4] = tested on: MBT-2 bladder transitional cell carcinoma, B16-F10 melanoma and LL/2 Lewis lung carcinoma; settings: depending on concentrations; cited from earlier work

Compound: Octreotide
- Lowering of IgF-1 by octreotide in the protocols (patients with cancer): lowering the IgF-1 significantly

Compound: Sodium phenylbutyrate [SPB]
- Toxicity of oral doses ([1]; oral doses up to 36 grams per day): minimal toxicity
- Patients with stable disease for more than 6 months while on the drug ([1]; oral): 25%
- Potency relative to phenylacetate (prostate cancer cells): more potent than phenylacetate

Compound: O=c1c(O)c(-c2ccc(O)c(O)c2)oc2cc(O)cc(O)c12 [Quercetin]
- Dose recommended for phase 2 studies ([2]; intravenous): ≤ 1400 mg/m2
- Patients with sustained decreases in unique cancer markers ([2]; of 50 patients, metastatic hepatocellular carcinoma and stage 4 metastatic ovarian cancer): two
- Suppression as defined by the radiological criteria of WHO ([2]; up to 1700 mg/m2 intravenous for 3 weeks, 50 patients): None of the patients achieved suppression
- Subjects with a decrease in tyrosine kinase levels (tyrosine kinase): 9
- Increase in lifespan (acites tumor cells): 20%
- Inhibition of cancer growth [3]: selective inhibition of cancer growth

Compound: O=C(O)CCCCC1CCSS1 (centres unmarked) [Lipoic acid]
- Reduction of cell number [4]: 10-50%
